From US20050130979A1, “Treatment of demyelinating disorders” (Eisai Co., Ltd., priority 1998, published 2005)
Entries after “also recorded” stand apart in the source; their conditions may differ.

What was measured:
Lewis rat acute EAE = test: Acute-active EAE in Lewis rats (MBP immunisation), clinical disease scoring and weight; type: in vivo
Experimental: Female Lewis rats (205+10 g) obtained from Charles River, Kent, UK, were housed in pairs under environmentally controlled conditions (6:00 a.m.-6:00 p.m. light/dark cycle; 22-24° C.; 45-55% humidity) and allowed free access to food and water. […] Female Biozzi mice (20±5 g) obtained from Harlan, UK, were housed under the conditions described above. Experimental groups consisted of 7-10 animals.
Rats were immunised in each hind foot with 50 μl of inoculum containing 50 μg guinea pig myelin basic protein (MBP, prepared by the method of Dunkley and Carnegie (1974); final concentration […]), emulsified in Freund's complete adjuvant (CFA; Sigma, UK) containing Mycobacterium tuberculosis H37Ra (final concentration 5.5 mg/ml; Difco Laboratories, UK).
Animals were weighed and monitored daily and clinical disease scored as (0) no clinical signs; (1) flaccid tail and weight loss; (2) hind limb hypotonia with further weight loss; (3) complete hind limb paralysis; (4) paraplegia and (5) death. […] During the period of compound administration (10-16 days post immunisation; dpi) animals were scored 15 h after injection of vehicle or NBQX to avoid any acute effect of treatment on disease score.
NBQX was initially dissolved in NaOH and diluted with water. pH was adjusted with HCl. Rats were injected i.p. twice daily (9 a.m. and 5 p.m.) on days 10 to 16 post immunisation with either vehicle or NBQX in the dose of 30 mg/kg. Mice were injected i.p. either twice daily (9 a.m. and 5 p.m.) on days 10 to 16 post immunisation or once daily (9 a.m.) on days 26 to 42 post immunisation with either vehicle or NBQX in the dose of 30 mg/kg.
GYKI53773 was suspended in 5% cremophore in saline. Rats were injected i.p. twice daily (9 a.m. and 5 p.m.) on days 10 to 16 post immunisation with either vehicle or GYKM53773 in the dose of 30 mg/kg.
GYKM52466 was suspended in 5% cremophore in water. Rats were injected i.p. twice daily (9 a.m. and 5 p.m.) on days 10 to 16 post immunisation with either vehicle or GYKI52466 in the dose of 30 mg/kg.
BIIR561 was suspended in 5% cremophore in water. Rats were injected i.p. twice daily (9 a.m. and 5 p.m.) on days 10 to 16 post immunisation with either vehicle or BIIR561 in the dose of 30 mg/kg.
CP465022 was suspended in 5% cremophore in water. Rats were injected i.p. twice daily (9 a.m. and 5 p.m.) on days 10 to 16 post immunisation with either vehicle or CP465022 in the dose of 10 mg/kg.
MPQX was initially dissolved in NaOH and diluted with water. pH was adjusted with HCl. Rats were injected i.p. twice daily (9 a.m. and 5 p.m.) on days 10 to 16 post immunisation with either vehicle or MPQX in the dose of 10 mg/kg.

[1] = test system: chronic EAE in the Biozzi mouse; test: Chronic-active EAE in Biozzi mice, clinical disease scoring; type: in vivo
[2] = Lewis rat acute EAE, NBQX 30 mg/kg i.p. twice daily 10-16 dpi
[3] = rats, 30 mg/kg i.p. twice daily 10-16 dpi

SMILES: NS(=O)(=O)c1cccc2c1c([N+](=O)[O-])cc1nc(O)c(O)nc12 [NBQX, 2,3-dihydroxy6-nitro-7-sulfamoylbenzo-(F)quinoxaline]
- Incidence (%) (Lewis rat acute EAE; [2]): (75) %
- Incidence (animals with neurological deficit / group) (Lewis rat acute EAE; [2]): 4/10
- onset of weight loss (Lewis rat acute EAE; NBQX 30 mg/kg i.p. twice daily 10-16 dpi, p<0.01): 13 dpi
- rats in which development of paralysis was completely prevented (Lewis rat acute EAE; NBQX 30 mg/kg i.p. twice daily from day 10 to 16 post immunisation): 6 out of 10
- Duration (Lewis rat acute EAE; mean, 30 mg/kg i.p. twice daily 10-16 dpi): 1.5 days
- Onset (Lewis rat acute EAE; mean, n = 4 for NBQX, 30 mg/kg i.p. twice daily 10-16 dpi): 11.8 d.p.i.
- Peak Disease Score (Lewis rat acute EAE; mean, scale 0-5, 30 mg/kg i.p. twice daily 10-16 dpi): 0.7
- Cumulative Disease Score (Lewis rat acute EAE; mean, summation of individual daily disease scores, 30 mg/kg i.p. twice daily 10-16 dpi): 2.4
- Weight Loss (Lewis rat acute EAE; mean, weight on cessation of treatment (16 dpi) as percent of maximum weight before disease onset, 30 mg/kg i.p. twice daily): 14%
- neurological deficits during acute EAE (in words) (Lewis rat acute EAE; rats, following treatment): reduction in neurological deficits
- cumulative disease score relative to vehicle treatment (in words) (Lewis rat acute EAE; [3]): significantly reduced
- disease duration relative to vehicle treatment (in words) (Lewis rat acute EAE; [3]): significantly reduced
- peak disease score relative to vehicle treatment (in words) (Lewis rat acute EAE; rats, 30 mg/kg i.p. twice daily 10-16 dpi, 30 mg/kg): significantly reduced
- severity of paralysis during EAE (in words) (Lewis rat acute EAE; rats, 30 mg/kg i.p. twice daily 10-16 dpi, vs vehicle): reduces severity of paralysis
- weight loss during the course of EAE (in words) (Lewis rat acute EAE; rats, NBQX 30 mg/kg i.p. twice daily 10-16 dpi, up to cessation of treatment (16 dpi)): reduces weight loss; also recorded: decreasing the percent body weight lost
- disease severity between dpi 28 to 48 (in words) ([1]; Biozzi mice, NBQX 30 mg/kg i.p. once daily for 17 days commencing on dpi 26, P<0.05): reduced disease severity
- disease severity between dpi 10 to 48 (in words) ([1]; Biozzi mice, NBQX 30 mg/kg i.p. twice daily for 7 days starting on dpi 10, P<0.001): improved neurological outcome reducing disease severity
- severity of paralysis during chronic EAE (in words) ([1]; NBQX 30 mg/kg i.p., twice daily 10-16 dpi (A) or once daily 26-42 dpi (B)): reduces the severity of paralysis
- neurological deficit during chronic EAE (in words) ([1]; mice, following treatment): reduction in neurological deficit
